{"source": "patent US20170106109A1", "about": "(priority 2010, published 2017)", "key": {"Ralstonia solanacearum [1]": {"test_system": "Ralstonia solanacearum", "assay_type": "cell-based"}, "[2]": {"test_system": "λ phage DNA HindIII Marker"}, "Escherichia coli": {"test_system": "Escherichia coli", "assay_type": "cell-based"}, "Ralstonia solanacearum [3]": {"test_system": "Ralstonia solanacearum", "assay_type": "cell-based", "remark": "listed apart in the source"}}, "data": [{"smiles": "OO", "note": "[Sample 6-3, hydrogen peroxide]", "values": [{"measurement": "change of bacterial density of Ralstonia solanacearum with time", "setting": "Ralstonia solanacearum [1]", "result": "the bacterial density changed little"}]}, {"smiles": "OO", "note": "[Sample 7-3, hydrogen peroxide]", "values": [{"measurement": "DNA ladder on agarose electrophoresis", "setting": "[2]", "result": "the DNA ladder did not change"}]}, {"smiles": "OO", "note": "[Sample 3-3, hydrogen peroxide]", "values": [{"measurement": "survival of Escherichia coli", "setting": "Escherichia coli", "result": "a large amount of Escherichia coli survived"}]}, {"smiles": "OO", "note": "[Sample 4-3, hydrogen peroxide]", "values": [{"measurement": "survival of Ralstonia solanacearum", "setting": "Ralstonia solanacearum [3]", "result": "a large amount of Ralstonia solanacearum survived"}]}]}
